Reference: patent US20050054722A1, “Inhibition of two-component signal transduction systems” (Unisearch Limited,, priority 1999, published 2005)

Tests used:
Staphylococcus aureus = experiment: Minimum inhibitory (growth) concentration, S. aureus; type: cell-based; details: growth curves, OD 610 nm
Protocol: (§1) Growth curve method. Bacteria are grown overnight in standard medium. The following morning, the cells were inoculated into fresh medium at 1% (a 1 in 100 dilution). Furanones were added either at the beginning of growth (time 0) or, as was the case for the B. subtilis experiments, the results of which are shown in FIG. 1, during the mid-logarithmic phase of growth. Growth was then monitored regularly by spectrophotometric readings, at a wavelength of 610 nm. Using the type of growth described above, the minimum growth inhibitory concentration of furanones was determined for S. aureus and Streptococcus spp. were determined for a range of compounds.

[1] = test system: P. syringae var tomato BB27 swarming (GacS/GacA); experiment: GacS/GacA assay (swarming on 0.4% agar SWM plates); type: cell-based, Pseudomonas syringae var. tomato
Protocol: P. syringae var tomato BB27 was grown overnight in SWM media at room temperature. This culture was used to stab inoculate SWM plates made up with 0.4% agar and incubated at room temperature (20° C.). The culture was also used to stab inoculate sets of SWM plates (0.4% agar) that bad been made up with 25 μg/ml and 50 μg/ml of the test compound (stock solutions made up in ethanol). These plates were also incubated at room temperature for 36 hours before being examined for swarming activity and photographed. Before use all 0.4% agar SWM plates were allowed to air-dry for two hours in a laminar flow cabinet at room temperature.
Furanones interfere with the “swarming” response of Pseudomonas syringae, which is regulated by the GacS/GacA two-component signal transduction system (Kinscherf and Willis, 1999).

Streptococcus spp. = experiment: Minimum inhibitory (growth) concentration, Streptococcus spp.; type: cell-based; details: growth curves, OD 610 nm
Protocol: as §1

S. aureus = details: cited from earlier work
S. aureus cells = details: cited from earlier work
Streptococcus pneumoniae = details: cited from earlier work
HPK NRII = HPK NRII (Escherichia coli, UniProt P0AFB5); details: Hilliard et al. 1999; cited from earlier work
E. faecium = details: cited from earlier work
[2] = test system: Bacillus subtilis strain ATCC 6633 and NCTC 10073; experiment: Growth curves, Bacillus subtilis; type: cell-based; details: compound added at 8-9 hours of growth, FIG. 1
Protocol: The compound was added at 8-9 hours, as denoted by the arrows, after the cultures had been growing. B. subtilis has a two component system that, when deleted, results in lysis and cell death.
Growth curve method. Bacteria are grown overnight in standard medium. The following morning, the cells were inoculated into fresh medium at 1% (a 1 in 100 dilution). Furanones were added either at the beginning of growth (time 0) or, as was the case for the B. subtilis experiments, the results of which are shown in FIG. 1, during the mid-logarithmic phase of growth. Growth was then monitored regularly by spectrophotometric readings, at a wavelength of 610 nm.

[3] = test system: CopS/CopR two component signal transduction system; experiment: CopS/CopR assay (cop'-lacZ, Cu2+-induced); type: cell-based, Pseudomonas syringae pv. syringae; details: for cop'-lacZ expression: 0.075 mM CuSO4, 6.5 hours
Protocol: P. syringae pv syringae PS61 (pCOP38)(pPT23D) was grown on SWM media (Kinscherf and Willis, 1999) at room temperature with shaking for 48 hours. Five μg/ml streptomycin, 15 μg/ml chloramphenicol and 1.0 mM CuSO4 were added to maintain plasmids. This culture was used to inoculate 50 ml SWM media in side-arm flasks with the addition of antibiotics. These cultures were incubated at room temperature with shaking for 16 hours (OD610=0.2) at which point CuSO4 was added to a concentration of 0.075 mM (CuSO4 solution made up in MQ water).
The test compound or mixtures of compounds were dissolved in ethanol and added to cultures to give the required final concentrations. Equal volumes of ethanol were added to Cu^2+ negative and positive cultures. Cultures were incubated for 6.5 hours at room temperature with shaking before being placed on ice. Samples were then removed for β-galactosidase assays. β-galactosidase assays were carried out in the same manner as those for the Taz assay described above.
The effect of furanone compound 3 on the CopS/CopR two component signal transduction system that regulates copper resistance in Pseudomonas syringae pv. syringae (Mills et al., 1993) was assessed. […] However, there appears to be no difference in terms of lacZ expression between the two concentrations (p>0.15).

HPK NRII, sequence (P0AFB5 whole entry): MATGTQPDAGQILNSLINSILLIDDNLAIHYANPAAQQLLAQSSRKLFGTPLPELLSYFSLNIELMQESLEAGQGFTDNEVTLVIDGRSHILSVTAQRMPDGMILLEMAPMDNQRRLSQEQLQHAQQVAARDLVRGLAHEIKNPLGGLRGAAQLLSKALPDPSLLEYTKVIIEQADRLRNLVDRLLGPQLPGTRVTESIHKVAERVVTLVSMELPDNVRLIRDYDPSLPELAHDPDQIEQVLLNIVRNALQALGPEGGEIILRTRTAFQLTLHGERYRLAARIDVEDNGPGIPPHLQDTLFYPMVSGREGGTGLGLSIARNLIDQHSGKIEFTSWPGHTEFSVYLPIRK

## CCCCCC(Br)C1=CC(=C(Br)Br)OC1=O (centres unmarked) [Compound 34]
Staphylococcus aureus
  Minimum inhibitory (growth) concentration, Staphylococcus aureus: 250 ng/mL

## O=C1C=C(Br)/C(=C/Br)O1 [Compound 30]
[1]; concentration not given
  swarming response in P. syringae: inhibited the swarming response
Streptococcus spp.
  Minimum inhibitory (growth) concentration, Streptococcus spp.: 10 µg/mL
Staphylococcus aureus
  Minimum inhibitory (growth) concentration, Staphylococcus aureus: 1000 to 20000 ng/mL

## CCCCCC(Br)C1=C(Br)/C(=C/Br)OC1=O (centres unmarked) [Compound 33]
Staphylococcus aureus
  Minimum inhibitory (growth) concentration, Staphylococcus aureus: 500 ng/mL

## NC(N)=NCCc1ccc(OCCC(c2ccccc2)(c2ccccc2)c2ccccc2)cc1 [RWJ-49815]
S. aureus
  active concentration (antibacterial): 1 to 2 µg/mL
S. aureus cells
  permeability of the membranes of S. aureus cells: caused a rapid increase in the permeability
Streptococcus pneumoniae
  active concentration (antibacterial): 1 to 2 µg/mL
HPK NRII
  autophosphorylation of the HPK NRII: inhibited the autophosphorylation
E. faecium
  active concentration (antibacterial): 1 to 2 µg/mL

## CCCCC1=C(Br)/C(=C/Br)OC1=O [Compound 2]
Staphylococcus aureus
  Minimum inhibitory (growth) concentration, Staphylococcus aureus: 1000 to 10000 ng/mL
[2]
  growth response (optical density): induction of cell lysis

## CCC[C@@H](O)C1=C(Br)/C(=C/Br)OC1=O [Compound 4]
Streptococcus spp.
  Minimum inhibitory (growth) concentration, Streptococcus spp.: 10 µg/mL
[3]; concentration not given
  normal activity of the CopS/CopR two-component signal transduction system: appeared to reduce the normal activity

## CCC[C@@H](OC(C)=O)C1=C(Br)/C(=C/Br)OC1=O [Compound 3]
[1]; 25 μg/ml, 36 hours
  swarming pattern: dramatically alters the swarming pattern
[1]; 50 μg/ml
  growth of P. syringae var. tomato: did not inhibit the growth
[1]; 50 μg/ml, 36 hours
  swarming: shut down swarming
[3]; 25 μg/ml
  cop'-lacZ expression: significantly reduced
[3]; 50 μg/ml
  cop'-lacZ expression: significantly reduced
[3]; at the concentrations used (25 and 50 μg/ml), P. syringae pv syringae
  growth inhibitory effects: did not have any growth inhibitory effects
